pIC50, pKi: −log10 of the molar value.

The target in the first test is T1, adenosine A1 receptors (Bos taurus, UniProt P28190).
T1 sequence (P28190 1-326): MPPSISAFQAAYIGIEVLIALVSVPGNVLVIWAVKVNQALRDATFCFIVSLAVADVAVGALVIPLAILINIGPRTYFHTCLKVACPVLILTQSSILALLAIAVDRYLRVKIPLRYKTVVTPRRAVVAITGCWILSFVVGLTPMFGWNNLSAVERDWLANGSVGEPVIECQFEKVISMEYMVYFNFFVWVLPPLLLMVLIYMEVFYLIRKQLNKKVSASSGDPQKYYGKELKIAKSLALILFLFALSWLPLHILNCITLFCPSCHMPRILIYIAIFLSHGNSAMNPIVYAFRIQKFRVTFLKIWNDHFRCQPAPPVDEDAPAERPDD
Put plainly: inhibition of [^3 H]CHA binding to A1 adenosine receptors in bovine brain membranes.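 Further: Filter-bound radioactivity read by liquid scintillation counting, with dose-inhibition curves built from 4–8 test concentrations, each run in triplicate.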
Details: not given
Usually pKi stands for the negative decadic logarithm of the Ki, by convention in mol/L. As to `Cn1c(=O)c2[nH]c(-c3ccccc3O)nc2n(C)c1=O` [8-(o-hydroxyphenyl)T], the pKi is 8.32.

A word on the pIC50: it is −log10 of the IC50, conventionally taken in molar units. A high value points to a low IC50. Regarding `Cn1c(=O)[nH]c(=O)c2[nH]cnc21` [3-methylX], the pIC50 was 3.82.

Regarding `Cn1cnc2c1c(=O)[nH]c(=O)n2C` [3,7-Dimethyl (theobromine), theobromine], the pKi was 7.17.

Compound `Cn1c(=O)c2[nH]c(-c3ccc(C(=O)O)cc3)nc2n(C)c1=O` [8-(p-carboxyphenyl)T] gave a pKi of 7.74.

Compound `Cc1ccccc1-c1nc2c([nH]1)c(=O)n(C)c(=O)n2C` [8-(o-methylphenyl)T] had a negative-log IC50 (pIC50) of 8.22.

On to `O=c1nc2[nH]c3ccccc3nc-2c(=O)[nH]1` [alloxazine], for which the pIC50 was 5.82.

`Cn1c(=O)c2nc(C3CCCCC3)[nH]c2n(C)c1=O` [8-cyclohexylT]: the pIC50 is 8.52.

As for `Cn1c(=O)c2c(ncn2CC(O)CO)n(C)c1=O` (centres unmarked) [7-(2,3-dihydroxypropyl)T], the pIC50 is 3.10.

`Cn1c(=O)c2[nH]c(-c3cccc(O)c3)nc2n(C)c1=O` [8-(m-hydroxyphenyl)T]: the pKi is 8.51.

For the compound `Cn1c(=O)c2[nH]c(-c3ccc(S(=O)(=O)O)cc3)nc2n(C)c1=O` [8-(p-sulfo-phenyl)T], the negative logarithm of the IC50 (pIC50) was 6.30.

`CCCc1nc2c([nH]1)c(=O)n(C)c(=O)n2C` [8-(n-propyl)T]: the negative logarithm of the IC50 (pIC50) was 7.00.

As for `Cn1c(=O)c2nc3ccccc3nc2n(C)c1=O` [1,3-dimethylalloxazine], the pIC50 is 4.60.

`CCCn1c(=O)n(CC)c(=O)c2scnc21` [1-ethyl-3-propyl-7-thiaxanthine]: the pIC50 was 5.10.

Regarding `Cn1c(=O)c2[nH]c(-c3cccc(Br)c3)nc2n(C)c1=O` [8-(m-bromophenyl)T], the pKi is 8.40.

`Cn1c(=O)c2c(ncn2CCCl)n(C)c1=O` [7-(2-chloroethyl)T] had a negative logarithm of the IC50 (pIC50) of 5.30.

Take `Cn1c(=O)c2[nH]c(-c3ccccn3)nc2n(C)c1=O` [8-(2-pyridyl)T]: the pIC50 was 7.00.

Turning to `Cn1c(=O)c2nc(-c3ccccc3N)[nH]c2n(C)c1=O` [B87, 8-(o-aminophenyl)theophylline], the pIC50 is 8.30 and the pKi is 8.64.

For the compound `CCCn1c(=O)c2[nH]c(-c3ccccc3)nc2n(CCC)c1=O` [B255, 1,3-Dipropyl-8-Phenylxanthine], the pIC50 is 9.52 and the pKi is 9.92.

In the case of `Cn1cccc1-c1nc2c([nH]1)c(=O)n(C)c(=O)n2C` [8-(N--methyl-2-pyrrolyl)T], the negative logarithm of the IC50 (pIC50) is 7.70.

The compound `C=CCn1c(=O)c2nc[nH]c2n(CC=C)c1=O` [1,3-diallylX] had a pIC50 of 5.40.

`Cn1c(=O)[nH]c2ncn(C)c2c1=O` [1,7-dimethylX] gave a pIC50 of 4.52 and a pKi of 5.13.

The compound `O=c1[nH]c(=O)c2[nH]cnc2[nH]1` [xanthine] gave a negative-log IC50 (pIC50) of 3.70 and a negative-log Ki (pKi) of 4.00.

Compound `Cn1c(=O)[nH]c2nc[nH]c2c1=O` [1-methylX] showed a pIC50 of 5.22 and a pKi of 5.59.

Take `Nc1ncnc2nc[nH]c12` [adenine]: the pIC50 is 3.10.

As for `Cn1c(=O)c2[nH]c(-c3ccc(Br)cc3)nc2n(C)c1=O` [8-(p-bromophenyl)T], the pIC50 is 9.10 and the pKi was 9.47.

Turning to `Cc1ccc(-c2nc3c([nH]2)c(=O)n(C)c(=O)n3C)s1` [8-(5-methyl-2-thienyl)T], the pIC50 is 8.30.

On to `Cn1c(=O)c2[nH]c(-c3ccc(Br)o3)nc2n(C)c1=O` [8-(5-bromo-2-furyl)T], for which the pIC50 was 7.30.

Turning to `Cn1c(=O)c2[nH]c(CC3CCCC3)nc2n(C)c1=O` [8-cyclopentylmethylT], the pIC50 was 7.52.

In turn, `Cn1c(=O)c2c(ncn2C)n(C)c1=O` [caffeine] gave a negative-log IC50 (pIC50) of 4.70 and a pKi of 4.96.

`Cn1c(=O)c2[nH]c(Cc3ccccc3)nc2n(C)c1=O` [8-benzylT]: the pIC50 is 5.82.

On to `Cn1c(=O)c2[nH]c(-c3c[nH]c4ccccc34)nc2n(C)c1=O` [8-(3-indolyl)T], for which the negative-log IC50 (pIC50) is 7.74.

The test is the same for the next values; noted with them: Table I; vs [^3 H]-cyclohexyladenosine, bovine brain.
Consider `Cn1c(=O)c2[nH]c(-c3ccc(Cl)cc3)nc2n(C)c1=O` [B70, 8-(p-chlorophenyl)theophylline], for which the pIC50 was 9.10.

Staying with this test, now noted: Table II; vs [^3 H-CHA] in bovine brain.
On to `Cn1c(=O)c2[nH]c(-c3ccccc3O)nc2n(C)c1=O` [8-(o-hydroxyphenyl)T], for which the pIC50 was 8.00.

`COc1ccccc1-c1nc2c([nH]1)c(=O)n(C)c(=O)n2C` [8-(o-methoxyphenyl)T] had a pIC50 of 6.46.

As for `Cn1c(=O)c2[nH]c(-[c-]3cccc3)nc2n(C)c1=O.[Fe+2].c1cc[cH-]c1` [8-ferrocenylT], the pIC50 was 7.70.

As to `Cn1c(=O)c2[nH]c(-c3ccncc3)nc2n(C)c1=O` [8-(4-pyridyl)T], the pIC50 was 7.46.

In turn, `Cn1c(=O)c2[nH]c(-c3ccc(C(=O)O)cc3)nc2n(C)c1=O` [8-(p-carboxyphenyl)T] showed a pIC50 of 7.30.

In the case of `Cc1ccc(-c2nc3c([nH]2)c(=O)n(C)c(=O)n3C)cc1` [8-(p-methylphenyl)T], the pIC50 was 9.10.

`CSc1ccc(-c2nc3c([nH]2)c(=O)n(C)c(=O)n3C)cc1` [8-(p-methylthiophenyl)T] had a negative logarithm of the IC50 (pIC50) of 8.70.

In turn, `C=CCn1c(=O)c2[nH]c(-c3ccccc3)nc2n(C)c1=O` [1-allyl-3-methyl-8-phenylX] gave a pIC50 of 8.40.

For `Cn1c(=O)[nH]c2nc(-c3ccccc3)[nH]c2c1=O` [1-methyl-8-phenylX], the pIC50 is 8.60.

The compound `Cn1c(=O)c2[nH]c(-c3ccc(Cl)c(Cl)c3)nc2n(C)c1=O` [8-(3,4-dichlorophenyl)T] showed a pIC50 of 8.30.

`Cn1c(=O)c2[nH]c(-c3cccc(O)c3)nc2n(C)c1=O` [8-(m-hydroxyphenyl)T] showed a negative logarithm of the IC50 (pIC50) of 8.22.

Regarding `COc1cc(OC)cc(-c2nc3c([nH]2)c(=O)n(C)c(=O)n3C)c1` [8-(3,5-dimethoxyphenyl)T], the pIC50 was 6.30.

On to `Cn1c(=O)c2[nH]c(-c3cccc(Br)c3)nc2n(C)c1=O` [8-(m-bromophenyl)T], for which the pIC50 was 8.00.

`CN(C)c1cccc(-c2nc3c([nH]2)c(=O)n(C)c(=O)n3C)c1` [8-(m-dimethylaminophenyl)T]: the pIC50 is 7.10.

In turn, `CCc1ccc(-c2nc3c([nH]2)c(=O)n(C)c(=O)n3C)cc1` [8-(p-ethylphenyl)T] had a pIC50 of 9.10.

As for `Cn1c(=O)c2[nH]c(-c3ccc(F)cc3)nc2n(C)c1=O` [8-(p-fluorophenyl)T], the pIC50 was 8.46.

`CN(C)c1ccc(-c2nc3c([nH]2)c(=O)n(C)c(=O)n3C)cc1` [8-(p-dimethylaminophenyl)T] gave a pIC50 of 8.74.

For `C=CCn1c(=O)c2[nH]c(-c3ccc(Cl)cc3N)nc2n(C)c1=O` [1-allyl-3-methyl-8-(2-amino-4-chlorophenyl)X], the pIC50 was 8.70.

For the compound `C=CCn1c(=O)c2[nH]c(-c3ccc(Cl)cc3N)nc2n(CC=C)c1=O` [1,3-diallyl-8-(2-amino-4-chlorophenyl)X, 1,3-diallyl-8-(2-amino-4-chlorophenyl)xanthine], the pIC50 was 9.10.

`Cn1c(=O)c2[nH]c([N+](=O)[O-])nc2n(C)c1=O` [8-nitroT] had a negative logarithm of the IC50 (pIC50) of 5.46.

Consider `Cn1c(=O)c2[nH]c(-c3ccc(-c4ccccc4)cc3)nc2n(C)c1=O` [8-(p-phenylphenyl)T], for which the pIC50 was 8.46.

With `Cc1cc(O)cc(C)c1-c1nc2c([nH]1)c(=O)n(C)c(=O)n2C` [8-(2,6-dimethyl-4-hydroxyphenyl)T], the pIC50 was 7.52.

For the compound `CCCCOc1ccc(-c2nc3c([nH]2)c(=O)n(C)c(=O)n3C)cc1` [8-(p-butoxyphenyl)T], the pIC50 was 8.40.

The test is the same for the next values; noted with them: bovine brain.
For the compound `CCCn1c(=O)c2[nH]c(-c3ccccc3)nc2n(CCC)c1=O` [B255, 1,3-Dipropyl-8-Phenylxanthine], the “adenosine receptor blocking activity (in words)” value is “significantly lower” and the “times more potent than theophylline” value is “about 10,000 times”.

In the case of `C=CCn1c(=O)c2[nH]c(-c3ccc(Cl)cc3N)nc2n(CC=C)c1=O` [1,3-diallyl-8-(2-amino-4-chlorophenyl)X, 1,3-diallyl-8-(2-amino-4-chlorophenyl)xanthine], the “adenosine receptor blocking activity (in words)” value is listed as “useful activity as an adenosine receptor antagonist”.

These data come from patent US4769377A, “Adenosine receptor antagonists” (priority 1986, dated 1988).
